Measurements taken from the NIST ThermoML archive (doi:10.1021/je800940j).

Tests used:
[1] = xn = mol fraction of the nth substance listed; conditions: Liquid; for viscosity: Concentric cylinders viscometry
[2] = 101 kPa, Liquid

C1CC[C@H]2CCCC[C@H]2C1 [cis-decahydronaphthalene] + C1CC[C@H]2CCCC[C@@H]2C1
[1], 101.3 kPa, x1 = 0.4106
Conditions	mass density [kg/m3]	viscosity [mPa·s]
283.15 K	887.8	3.097
293.15 K	880.25	2.504
303.15 K	872.7	2.066
313.15 K	865.15	1.734
323.15 K	857.65	1.477

C1CCCCC1 [cyclohexane]
[2]
Conditions	mass density [kg/m3]
283.15 K	787.95
293.15 K	778.7
303.15 K	769.2
313.15 K	759.65
323.15 K	749.9

[2], Concentric cylinders viscometry
Conditions	viscosity [mPa·s]
283.15 K	1.18
293.15 K	0.9847
303.15 K	0.8295
313.15 K	0.7061
323.15 K	0.5978

Cc1ccccc1 [toluene]
[2]
Conditions	mass density [kg/m3]
283.15 K	876.1
293.15 K	866.75
303.15 K	857.48
313.15 K	848.08
323.15 K	838.7

[2], Automatic viscometer
Conditions	viscosity [mPa·s]
283.15 K	0.6657
293.15 K	0.5958
303.15 K	0.5368
313.15 K	0.4859
323.15 K	0.4408

Cc1ccccc1 [toluene] + C1CCCCC1
[1], 101 kPa, x2 = 0
Conditions	mass density [kg/m3]	viscosity [mPa·s]
283.15 K	876.1	0.6657
293.15 K	866.75	0.5958
303.15 K	857.48	0.5368
313.15 K	848.08	0.4859
323.15 K	838.7	0.4408
